Entries after “also recorded” stand apart in the source; their conditions may differ. Read-outs that look alike come from different tables or passages of the source.
Columns and labels:
human α-synuclein = biological target: T1, human α-synuclein (Homo sapiens, UniProt P37840); assay: Thioflavin T cell-free assay of α-synuclein aggregation; assay type: biochemical; conditions: α-synuclein 50 μM, compounds at 20-50 μM, data from 36 hours; for Inhibition of Aggregation, αSyn: ThT fluorescence, negative = potentiation
T1 construct: the full-length gene for untagged human α-synuclein was inserted; made in house; host or cells: E. coli BL21 (DE3)

[1] = biological target: T2, α-synuclein seeded by E. coli CsgA (Homo sapiens, UniProt P37840); assay: Thioflavin T cell-free assay of CsgA-seeded α-synuclein aggregation; assay type: biochemical
T2 construct: the full-length gene for untagged human α-synuclein was inserted; made in house; host or cells: α-synuclein: E. coli BL21 (DE3); CsgA: E. coli NEB 3016 slyD::kan

E. coli CsgA = biological target: T3, E. coli CsgA (Escherichia coli, UniProt P28307); assay: Thioflavin T cell-free assay of CsgA aggregation; assay type: biochemical
T3 construct: 6xHis (C); made in house; host or cells: E. coli NEB 3016 slyD::kan

[2] = test system: Thy1-αSyn mice (ASO) mono-colonized with WT E. coli; assay: Motor function of germ-free Thy1-αSyn (ASO) mice mono-colonized with WT E. coli, EGCG in drinking water; assay type: in vivo
αSyn aggregates = αSyn aggregates in brain of ASO mice mono-colonized with WT E. coli, EGCG in drinking water; assay type: in vivo
[3] = read-out: Inhibition of Aggregation, CsgA-seeded αSyn
[4] = read-out: Inhibition of Aggregation, CsgA-seeded αSyn (compound activity range)
[5] = read-out: Inhibition of Aggregation, CsgA
[6] = read-out: Inhibition of Aggregation, CsgA (compound activity range)
[7] = 15-16 weeks of age, EGCG ad lib in drinking water, vs vehicle treated control

T3 sequence (P28307 23-151): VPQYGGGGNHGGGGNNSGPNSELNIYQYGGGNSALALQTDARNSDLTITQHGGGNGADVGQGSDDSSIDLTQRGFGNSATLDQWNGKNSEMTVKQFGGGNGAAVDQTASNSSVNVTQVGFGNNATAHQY

| Structure (SMILES) | Inhibition of Aggregation, αSyn (human α-synuclein) | Inhibition of Aggregation, αSyn (compound activity range) (human α-synuclein) | inhibition at 50 µM [1, 3] | inhibition at 50 µM [1, 4] | inhibition at 20 µM (E. coli CsgA; [5]) | inhibition at 20 µM (E. coli CsgA; [6]) | beam traversal time (time to cross) [2, 7] | hindlimb clasping score [2, 7] | nasal adhesive removal time (time to remove) [2, 7] | pole descent time (time to descent) [2, 7] | wire hang test (time to fall) [2, 7] | progressive motor deficits exacerbated by E. coli ([2]; assessment of motor performance, EGCG treatment) | αSyn aggregation in the striatum and midbrain (αSyn aggregates; EGCG treatment) | Proteinase K resistant αSyn aggregates in the substantia nigra (αSyn aggregates; immunofluorescence microscopy, EGCG-treated vs vehicle/untreated controls) |
| --- | --- | --- | --- | --- | --- | --- | --- | --- | --- | --- | --- | --- | --- | --- |
| O=C(Nc1sc2c(c1C(=O)Nc1cc(O)c(O)c(O)c1)CCCC2)c1cc(O)c(O)c(O)c1 [Compound 2, 2-(3,4,5-trihydroxybenzamido)-N-(3,4,5-trihydroxyphenyl)-4,5,6,7-tetrahydrobenzo[b]thiophene-3-carboxamide] | 93% | (+++) ((+++) is greater than 60% inhibition) | 63% | > 60% | 45% | 30 to 60% |  |  |  |  |  |  |  |  |
| O=C(Nc1sc2c(c1C(=O)Nc1cc(O)cc(O)c1)CCCC2)c1cc(O)c(O)c(O)c1 [Compound 6, N-(3,5-dihydroxyphenyl)-2-(3,4,5-trihydroxybenzamido)-4,5,6,7-tetrahydrobenzo[b]thiophene-3-carboxamide] | 36% | (++) ((++) is between 30% to 60% inhibition) | > 90% | > 60% | 40% | 30 to 60% |  |  |  |  |  |  |  |  |
| COc1cc(NC(=O)c2c(N)sc3c2CCCC3)cc(OC)c1OC [Compound 14, 2-amino-N-(3,4,5-trimethoxyphenyl)-4,5,6,7-tetrahydrobenzo[b]thiophene-3-carboxamide] | 3% | (−) ((−) is between −10% to 10% inhibition) | 74% | > 60% |  |  |  |  |  |  |  |  |  |  |
| COc1cc(NC(=O)c2c[nH]c3cc(OC)c(OC)c(OC)c3c2=O)cc(OC)c1OC [Compound 19, 5,6,7-trimethoxy-4-oxo-N-(3,4,5-trimethoxyphenyl)-1,4-dihydroquinoline-3-carboxamide] | 29% | (+) ((+) is between 10% to 30% inhibition) | 14% | 10 to 30% | 18% | 10 to 30% |  |  |  |  |  |  |  |  |
| O=C(Nc1cc(O)c(O)c(O)c1)c1c[nH]c2cc(O)c(O)c(O)c2c1=O [Compound 20, 5,6,7-trihydroxy-4-oxo-N-(3,4,5-trihydroxyphenyl)-1,4-dihydroquinoline-3-carboxamide] |  |  | 11% | 10 to 30% | 61% | > 60% |  |  |  |  |  |  |  |  |
| COc1cc(OC(=O)c2c[nH]c3cc(OC)c(OC)c(OC)c3c2=O)cc(OC)c1OC [Compound 23, 3,4,5-trimethoxyphenyl 5,6,7-trimethoxy-4-oxo-1,4-dihydroquinoline-3-carboxylate] |  |  | -22% | < -10% | -4% | -10 to 10% |  |  |  |  |  |  |  |  |
| COc1cc(OC)c2c(=O)c(C(=O)Oc3cc(OC)c(OC)c(OC)c3)c[nH]c2c1 [Compound 24, 3,4,5-trimethoxyphenyl 5,7-dimethoxy-4-oxo-1,4-dihydroquinoline-3-carboxylate] |  |  | -27% | < -10% | -1% | -10 to 10% |  |  |  |  |  |  |  |  |
| COc1cc(OC)c2c(=O)c(C(=O)Nc3cccc(O)c3)c[nH]c2c1 [Compound 26, N-(3-hydroxyphenyl)-5,7-dimethoxy-4-oxo-1,4-dihydroquinoline-3-carboxamide] | 24% | (+) ((+) is between 10% to 30% inhibition) | < -50% | < -10% | 8% | -10 to 10% |  |  |  |  |  |  |  |  |
| O=C(Nc1ccccc1)c1c[nH]c2cc(O)cc(O)c2c1=O [Compound 27, 5,7-dihydroxy-4-oxo-N-phenyl-1,4-dihydroquinoline-3-carboxamide] | 49% | (++) ((++) is between 30% to 60% inhibition) | 79% | > 60% | 44% | 30 to 60% |  |  |  |  |  |  |  |  |
| COc1cc2[nH]cc(C(=O)Nc3cccc(O)c3)c(=O)c2c(OC)c1OC [Compound 28, N-(3-hydroxyphenyl)-5,6,7-trimethoxy-4-oxo-1,4-dihydroquinoline-3-carboxamide] | 20% | (+) ((+) is between 10% to 30% inhibition) | < -50% | < -10% | -6% | -10 to 10% |  |  |  |  |  |  |  |  |
| O=C(Nc1cccc(O)c1)c1c[nH]c2cc(O)c(O)c(O)c2c1=O [Compound 32, 5,6,7-trihydroxy-N-(3-hydroxyphenyl)-4-oxo-1,4-dihydroquinoline-3-carboxamide] | 48% | (++) ((++) is between 30% to 60% inhibition) | > 90% | > 60% | 53% | 30 to 60% |  |  |  |  |  |  |  |  |
| COc1cc(OC)c2c(=O)c(C(=O)Nc3ccccc3O)c[nH]c2c1 [Compound 41, N-(2-hydroxyphenyl)-5,7-dimethoxy-4-oxo-1,4-dihydroquinoline-3-carboxamide] | 17% | (+) ((+) is between 10% to 30% inhibition) |  |  | 18% | 10 to 30% |  |  |  |  |  |  |  |  |
| CN(C(=O)c1c[nH]c2cc(O)cc(O)c2c1=O)c1cc(O)c(O)c(O)c1 [Compound 42, 5,7-dihydroxy-N-methyl-4-oxo-N-(3,4,5-trihydroxyphenyl)-1,4-dihydroquinoline-3-carboxamide] | 98% | (+++) ((+++) is greater than 60% inhibition) | > 90% | > 60% | 114% | > 60% |  |  |  |  |  |  |  |  |
| O=C(Nc1ccccc1O)c1c[nH]c2cc(O)c(O)c(O)c2c1=O [Compound 43, 5,6,7-trihydroxy-N-(2-hydroxyphenyl)-4-oxo-1,4-dihydroquinoline-3-carboxamide] | 63% | (++) ((++) is between 30% to 60% inhibition) |  |  | 90% | > 60% |  |  |  |  |  |  |  |  |
| O=C(Nc1cc(O)c(O)c(O)c1)c1c(-c2cc(O)c(O)c(O)c2)[nH]c2cc(O)c(O)c(O)c2c1=O [Compound 44, 5,6,7-trihydroxy-4-oxo-N,2-bis(3,4,5-trihydroxyphenyl)-1,4-dihydroquinoline-3-carboxamide] | 98% | (+++) ((+++) is greater than 60% inhibition) | > 90% | > 60% | 64% | > 60% |  |  |  |  |  |  |  |  |
| O=C(Nc1cccc(O)c1)c1c[nH]c2cc(O)cc(O)c2c1=O [Compound 48, 5,7-dihydroxy-N-(3-hydroxyphenyl)-4-oxo-1,4-dihydroquinoline-3-carboxamide] | 37% | (++) ((++) is between 30% to 60% inhibition) | > 90% | > 60% | -2% | -10 to 10% |  |  |  |  |  |  |  |  |
| O=C(O[C@@H]1Cc2c(O)cc(O)cc2O[C@@H]1c1cc(O)c(O)c(O)c1)c1cc(O)c(O)c(O)c1 [EGCG, epigallocatechin gallate] |  |  |  |  |  |  | lower | lower | lower | lower | higher | dampens | preventing | lower; also recorded: Fewer |

Source: patent publication US11505528B2, “Inhibitors of microbially induced amyloid” (Axial Therapeutics, Inc., priority 2017, dated 2022)
